This passage reports IC50 results from patent publication US10711007B2, “Selective inhibitors of protein arginine methyltransferase 5 (PRMT5)” (Prelude Therapeutics, Incorporated, priority 2018, dated 2020).

Structures are written as SMILES.

The target of one test is PRMT5/MEP50 complex (Homo sapiens (Human), UniProt O14744). Kind of test: Biochemical assay: PRMT5/MEP50 methylation of histone H4 based AcH4-23, SPA readout. The note with it: PRMT5/MEP50 2.5 nM, 300 nM AcH4-23, 1 μM 3H-SAM. How it is done: Biochemical Assay Protocol
PRMT5/MEP50 complex, sequence (O14744 whole entry): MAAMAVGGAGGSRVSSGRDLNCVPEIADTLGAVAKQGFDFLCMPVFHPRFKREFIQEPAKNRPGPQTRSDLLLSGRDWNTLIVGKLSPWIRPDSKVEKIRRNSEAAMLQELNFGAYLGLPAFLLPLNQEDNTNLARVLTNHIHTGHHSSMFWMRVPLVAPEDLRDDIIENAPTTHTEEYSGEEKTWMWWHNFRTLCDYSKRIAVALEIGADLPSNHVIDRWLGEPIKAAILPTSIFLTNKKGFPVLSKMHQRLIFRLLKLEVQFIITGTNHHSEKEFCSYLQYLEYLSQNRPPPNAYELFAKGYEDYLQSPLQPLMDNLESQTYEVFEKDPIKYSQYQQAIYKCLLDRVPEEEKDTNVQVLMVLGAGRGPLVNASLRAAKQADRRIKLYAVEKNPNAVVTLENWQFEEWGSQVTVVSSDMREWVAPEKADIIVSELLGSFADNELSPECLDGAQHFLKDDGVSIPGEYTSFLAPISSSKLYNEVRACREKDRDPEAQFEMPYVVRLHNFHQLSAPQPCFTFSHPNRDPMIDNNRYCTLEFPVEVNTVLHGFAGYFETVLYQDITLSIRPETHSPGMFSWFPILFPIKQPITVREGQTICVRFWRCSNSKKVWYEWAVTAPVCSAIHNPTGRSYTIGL
PRMT5/MEP50 complex, sequence (Q9BQA1 whole entry partner): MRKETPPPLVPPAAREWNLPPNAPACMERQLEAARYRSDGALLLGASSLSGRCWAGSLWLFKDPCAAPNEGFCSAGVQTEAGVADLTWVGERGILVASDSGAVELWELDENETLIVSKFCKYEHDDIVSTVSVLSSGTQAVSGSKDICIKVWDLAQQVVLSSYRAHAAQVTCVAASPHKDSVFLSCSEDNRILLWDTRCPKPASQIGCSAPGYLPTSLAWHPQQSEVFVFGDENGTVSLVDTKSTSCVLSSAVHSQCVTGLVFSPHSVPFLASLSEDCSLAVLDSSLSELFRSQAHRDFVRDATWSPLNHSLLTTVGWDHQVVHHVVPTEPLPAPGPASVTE
Compounds were solubilized and 3-fold diluted in 100% DMSO. […] Standard reactions were performed in a total volume of 30 μl in assay buffer, with 300 nM histone H4 based AcH4-23 (Anaspec: AS-65002) as substrate. To this was added the PRMT5/MEP50 complex diluted to provide a final assay concentration of 2.5 nM and the compounds were allowed to preincubate for 20 minutes at 37° C. The reaction was initiated by adding S-[3H-methyl]-adenosyl-L-methionine (PerkinElmer: NET155001MC) to final concentration of 1 μM. Following a 30 minutes incubation at 37° C., the reaction was stopped by adding 25 μL of 8M Guanidine HCl. Prepare streptavidin YSI SPA beads (Perkinelmer: RPNQ0012) at 0.3 mg/mL in assay buffer. To each reaction, add 150 μL of SPA beads suspension, and incubated while shaking at room temperature for 30 minutes. The plate was centrifuged at 100×g for 30 second before reading in a scintillation counter. IC50 values were determined by fitting the data to the standard 4 parameters with Hill Slope using GraphPad Prism software.

The test system of test [1] is sDMA marks (SmD3me2s) in U-87 MG cells. Kind of test: Western blotting for symmetric di-methyl arginine (sDMA) marks in U-87 MG cells. The note with it: Homo sapiens, 72 h; U-87 MG cell line, 3 days. The test is classed as cell-based. How it is done: (§1) Cell Treatment and Western Blotting for Detecting Symmetric Di-Methyl Arginine (sDMA) Marks
(§2) Compound Titration and Cell Culture:
(§3) Compounds were dissolved in DMSO to make 10 mM stock and 3-fold series dilutions were further conducted to make working stocks top at 1 mM. Granta-519 cells were maintained in PRMI 1640 (Corning Cellgro, Catalog #: 10-040-CV) supplemented with 10% v/v FBS (GE Healthcare, Catalog #: SH30910.03) and U-87 MG cells were maintained in DMEM (Corning Cellgro, Catalog #: 10-013-CV) with 10% FBS and 2 mM Glutamin (Corning Cellgro, Catalog #25005CV).
To determine enzyme inhibition IC50 values in Granta-519 and U-87 MG cells using Western Blot analysis. One day before experiment, Granta-519 cells were passaged to a density of 0.5×10^6 cells/ml. U-87 MG cells were trypsinized and 4×10^5 cells were seeded into 6-well plates and allow to grow overnight. The next day, Granta-519 cells were spun down at 1,500 rpm for 4 min, resuspend in fresh medium at 0.5×10^6 cells/ml and 3 mL of culture (1.5×10^6 cells) were seeded into 6 well plate. Eight-point, 3-fold serial dilutions of compound working stocks were added to cells (3 ul, 1:1,000 dilution, DMSO concentration was 0.1%; final top concentration at 1 uM) and incubated for 3 days. Cells incubated with DMSO was used as a vehicle control.
Cells were harvested 3 days later, resuspended in 15 uL PBS, lysed in 4% SDS, and homogenized by passing through homogenizer column (Omega Biotek, Catalog #: HCR003). Total protein concentrations were determined by BCA assay (ThermoFisher Scientific, Catalog #: 23225). Lysates were mixed with 5× Laemmli buffer and boiled for 5 min. Forty ug of total protein was separated on SDS-PAGE gels (Bio-Rad, catalog #: 4568083, 4568043), transferred to PVDF membrane, blocked with 5% dry milk (Bio-Rad, Catalog #: 1706404) in TBS with 0.1% v/v Tween 20 (TBST) for 1 hour at room temperature (RT), and incubated with primary antibodies (sDMA: Cell signaling, Catalog #: 13222, 1:3,000; β-Actin: sigma, Catalog #: 1:5,000) in 5% dry milk in TBST at 4° C. overnight. The next day, membranes were washed with TBST, 5×5 min, and incubated with HRP conjugated seconded antibody (GE Healthcare; Catalog #: NA934-1ML, NA931-1ML; 1:5,000) for 2 hours at RT, followed by 5×5 min washes with TBST, and incubation with ECL substrates (Bio-Rad, Catalog #: 1705061, 1705062). Chemiluminescent signal was captured with Fluochem HD2 imager (Proteinsimple). SmD3me2s bands were quantified by ImageJ. Signals were normalized to β-Actin and DMSO control. IC50 values were calculated using Graphpad Prism ([Inhibitor] vs. normalized response-Variable slope).

For test [2], the system named is sDMA marks (SmD3me2s) in Granta-519 cells. Put plainly: Western blotting for symmetric di-methyl arginine (sDMA) marks in Granta-519 cells. In kind it is cell-based. The note with it: Homo sapiens, 72 h; Granta-519 cell line (value in brackets), 3 days. How it is done: as §1, §2, §3
To determine enzyme inhibition IC50 values in Granta-519 and U-87 MG cells using Western Blot analysis. One day before experiment, Granta-519 cells were passaged to a density of 0.5×10^6 cells/ml. U-87 MG cells were trypsinized and 4×10^5 cells were seeded into 6-well plates and allow to grow overnight. […]
Cells were harvested 3 days later, resuspended in 15 uL PBS, lysed in 4% SDS, and homogenized by passing through homogenizer column (Omega Biotek, Catalog #: HCR003). Total protein concentrations were determined by BCA assay (ThermoFisher Scientific, Catalog #: 23225). […] SmD3me2s bands were quantified by ImageJ. […] IC50 values were calculated using Graphpad Prism ([Inhibitor] vs. normalized response-Variable slope).

The next test deals with U-87 MG cells. Kind of test: Cell proliferation assay (CCK-8, day 10) in U-87 MG cells. The test is classed as cell-based. The note with it: Homo sapiens, 240 h, U-87 MG cell line, read-out: Prolif. IC50. How it is done: Cell Proliferation Assay to Determine IC50 in Granta-519 and U-87 MG Cells
One day before experiment, Granta-519 cells were passaged to a density of 0.5×10^6 cells/ml. U-87 MG cells were trypsinized and 2,000 cells were seeded into 96-well plates and allow to grow overnight. On the day of experiment (day 0), Granta-519 Cells were spun down at 1,500 rpm for 4 min, resuspended in fresh medium to 0.5×10^6 cells/ml and 190 ul of cells were added to 96 well plates. For U-87 MG cells, old medium was removed and replaced with 190 uL fresh medium. Compound working stocks were first diluted at 1:50 with fresh medium in 96 well plate and 10 μL of diluted drugs were added to 96 well plates containing cells and incubated for 3 days. DMSO was used a vehicle control.
One day 3, 50 uL of Granta-519 cells were transferred to a new 96-well plate and 140 uL fresh medium was added. For U-87 MG cells, old medium was removed and replaced with 190 uL fresh medium. Compound working stocks were freshly diluted at 1:50 with medium and 10 μL of diluted drugs were added to cells and grow for 3additional days. The same process was repeated on day 6. Cells were allowed to grow for additional 4 days.
On day 10, 100 uL Granta-519 cells were transferred to a new 96 well plate and 10 μL of Cell Counting Kit-8 (CCK-8, Jojindo, CK04-13) solution was added. For U-87 MG cells, old medium was removed and replaced with 100 uL fresh medium and 10 uL CCK-8 solution was added. Plates were incubated in CO2 incubator for 2 hours (Granta-519 cells) or 30 min (U-87 MG cells) and OD450 values were measured with a microplate reader (iMark microplate reader, Bio-Rad). Percentage of viable cells, relative to DMSO vehicle control, were calculated and plotted in Graphpad Prism ([Inhibitor] vs. normalized response-Variable slope) to determine proliferation IC50 values on day 10.

In the case of `Nc1ncnc2c1ccn2[C@@H]1O[C@H]([C@@H]2OCc3cc(Cl)ccc32)[C@@H](O)[C@H]1O` [Example 1A, (2R,3R,4S,5S)-2-(4-amino-7H-pyrrolo[2,3-d]pyrimidin-7-yl)-5-((R)-5-chloro-1,3-dihydroisobenzofuran-1-yl)tetrahydrofuran-3,4-diol], the IC50 amounted to 3.8 nM against PRMT5/MEP50 complex, 120 nM in test [1], 27 nM in test [2] and 142 nM in the test on U-87 MG cells.
As to `Nc1ncnc2c1ccn2[C@@H]1O[C@H]([C@@H]2OCCc3cc(Cl)c(Cl)cc32)[C@@H](O)[C@H]1O` [Example 88, (2R,3R,4S,5S)-2-(4-amino-7H-pyrrolo[2,3-d]pyrimidin-7-yl)-5-((R)-6,7-dichloroisochroman-1-yl)tetrahydrofuran-3,4-diol], the IC50 against PRMT5/MEP50 complex was determined as 1.6 nM; in test [1], 18.5 nM; in the test on U-87 MG cells it was 60 nM.
In the same order, the values of `Cc1ncnc2c1ccn2[C@@H]1O[C@H]([C@@H]2OCCc3cc(Cl)ccc32)[C@@H](O)[C@H]1O` [Example 22, (2S,3S,4R,5R)-2-((R)-6-chloroisochroman-1-yl)-5-(4-methyl-7H-pyrrolo[2,3-d]pyrimidin-7-yl)tetrahydrofuran-3,4-diol] are 4.8 nM, 17.6 nM and 54 nM.
In the same order, the values of `Nc1ncnc2c1ccn2[C@@H]1O[C@H]([C@@H]2OCCc3cc(Cl)sc32)[C@@H](O)[C@H]1O` [Example 90, (2R,3R,4S,5S)-2-(4-amino-7H-pyrrolo[2,3-d]pyrimidin-7-yl)-5-((S)-2-chloro-4,7-dihydro-5H-thieno[2,3-c]pyran-7-yl)tetrahydrofuran-3,4-diol] are 2.2 nM, 11.4 nM and 33.3 nM.
For the compound `Nc1ncnc2c1ccn2[C@@H]1O[C@H]([C@@H]2OC[C@H](F)c3cc(Cl)ccc32)[C@@H](O)[C@H]1O` [Example 95, (2R,3R,4S,5S)-2-(4-amino-7H-pyrrolo[2,3-d]pyrimidin-7-yl)-5-((1R,4R)-6-chloro-4-fluoroisochroman-1-yl)tetrahydrofuran-3,4-diol], the IC50 came out at 1.6 nM against PRMT5/MEP50 complex, 11.1 nM in test [1] and 18.5 nM with U-87 MG cells.
Consider `Cc1ncnc2c1ccn2[C@@H]1O[C@H]([C@@H]2OCCc3cc(Cl)sc32)[C@@H](O)[C@H]1O` [Example 89, (2S,3S,4R,5R)-2-((S)-2-chloro-4,7-dihydro-5H-thieno[2,3-c]pyran-7-yl)-5-(4-methyl-7H-pyrrolo[2,3-d]pyrimidin-7-yl)tetrahydrofuran-3,4-diol], for which the results for the IC50 (against PRMT5/MEP50 complex; in test [1]; with U-87 MG cells) were 15.7 nM, 84.4 nM and 179 nM, respectively.
Turning to `Nc1ncnc2c1ccn2[C@@H]1O[C@H]([C@@H]2OCc3cc(F)c(F)cc32)[C@@H](O)[C@H]1O` [Example 4, (2R,3R,4S,5S)-2-(4-amino-7H-pyrrolo[2,3-d]pyrimidin-7-yl)-5-((R)-5,6-difluoro-1,3-dihydroisobenzofuran-1-yl)tetrahydrofuran-3,4-diol], the IC50 against PRMT5/MEP50 complex worked out at 1.5 nM; in test [1], 31 nM; in the test with U-87 MG cells it was 95 nM.
For `Nc1ncnc2c1c(F)cn2[C@@H]1O[C@H]([C@@H]2OCCc3cc(Cl)ccc32)[C@@H](O)[C@H]1O` [Example 86, (2R,3R,4S,5S)-2-(4-amino-5-fluoro-7H-pyrrolo[2,3-d]pyrimidin-7-yl)-5-((R)-6-chloroisochroman-1-yl)tetrahydrofuran-3,4-diol], in that order: 2 nM, 5.4 nM and 13 nM.
With `Cc1ncnc2c1c(F)cn2[C@@H]1O[C@H]([C@@H]2OCCc3cc(Cl)ccc32)[C@@H](O)[C@H]1O` [Example 85, (2S,3S,4R,5R)-2-((R)-6-chloroisochroman-1-yl)-5-(5-fluoro-4-methyl-7H-pyrrolo[2,3-d]pyrimidin-7-yl)tetrahydrofuran-3,4-diol], the IC50 is 14.7 nM on PRMT5/MEP50 complex, 173 nM in test [1] and 304 nM in the test with U-87 MG cells.
Regarding `Nc1ncnc2c1ccn2[C@@H]1C[C@H]([C@@H]2OC(=O)c3cc(Cl)ccc32)[C@@H](O)[C@H]1O` [Example 3A, (S)-3-((1S,2R,3S,4R)-4-(4-amino-7H-pyrrolo[2,3-d]pyrimidin-7-yl)-2,3-dihydroxycyclopentyl)-6-chloroisobenzofuran-1(3H)-one], the values for the IC50 (at PRMT5/MEP50 complex; in test [2]) were 21 nM and 1620 nM, respectively.
For the compound `Nc1ncnc2c1ccn2[C@@H]1O[C@H]([C@@H]2OCCc3cc(Cl)ccc32)[C@@H](O)[C@H]1O` [Example 68, (2R,3R,4S,5S)-2-(4-amino-7H-pyrrolo[2,3-d]pyrimidin-7-yl)-5-((R)-6-chloroisochroman-1-yl)tetrahydrofuran-3,4-diol], the IC50 on PRMT5/MEP50 complex is 1.2 nM; in test [1] it was 2.58 nM; in the test on U-87 MG cells, 9.1 nM.
